Reference: article PMC9851200, “Multiparameter phenotypic screening for endogenous TFEB and TFE3 translocation identifies novel chemical series modulating lysosome function” (Autophagy, 2022)

Tests used:
Format in all cases: binding
[1] = molecular target: kinases (KINOMEscan panel) (Homo sapiens, UniProt P04049); settings: RAF1; NEW KINOMEscan
[2] = molecular target: kinases (KINOMEscan panel) (Homo sapiens, UniProt P19525); settings: kinase ElF2AK2; NEW KINOMEscan
[3] = molecular target: kinases (KINOMEscan panel) (Homo sapiens, UniProt Q86Z02); settings: HIPK1; NEW KINOMEscan
[4] = molecular target: T1, kinases (KINOMEscan panel) (Homo sapiens, UniProt Q8N568); settings: NEW KINOMEscan
T1 sequence (Q8N568 1-766): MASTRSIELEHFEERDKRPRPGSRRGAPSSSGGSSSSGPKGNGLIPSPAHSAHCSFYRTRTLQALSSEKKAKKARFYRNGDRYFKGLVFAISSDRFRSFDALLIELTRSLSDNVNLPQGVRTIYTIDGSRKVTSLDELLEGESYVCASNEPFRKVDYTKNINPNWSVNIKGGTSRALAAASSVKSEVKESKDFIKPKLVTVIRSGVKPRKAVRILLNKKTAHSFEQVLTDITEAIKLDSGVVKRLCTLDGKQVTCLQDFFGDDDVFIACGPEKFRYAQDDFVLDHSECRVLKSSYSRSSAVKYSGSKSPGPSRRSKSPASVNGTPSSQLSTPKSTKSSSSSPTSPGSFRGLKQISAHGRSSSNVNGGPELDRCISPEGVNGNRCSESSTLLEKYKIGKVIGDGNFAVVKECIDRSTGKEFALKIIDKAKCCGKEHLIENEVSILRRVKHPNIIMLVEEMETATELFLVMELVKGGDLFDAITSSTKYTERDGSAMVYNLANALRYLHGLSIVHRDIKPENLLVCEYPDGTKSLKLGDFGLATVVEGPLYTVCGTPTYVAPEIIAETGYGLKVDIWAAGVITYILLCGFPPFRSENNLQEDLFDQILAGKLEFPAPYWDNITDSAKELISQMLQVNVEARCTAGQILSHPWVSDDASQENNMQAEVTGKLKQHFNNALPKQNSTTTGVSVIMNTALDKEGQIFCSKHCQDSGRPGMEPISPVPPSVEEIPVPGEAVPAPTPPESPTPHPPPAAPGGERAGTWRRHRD

[5] = molecular target: kinases (KINOMEscan panel) (Homo sapiens, UniProt Q8N5S9); settings: CAMKK1; NEW KINOMEscan
[6] = molecular target: T2, kinases (KINOMEscan panel) (Homo sapiens, UniProt Q8NFD2); settings: ANKK1; NEW KINOMEscan
T2 sequence (Q8NFD2 1-765): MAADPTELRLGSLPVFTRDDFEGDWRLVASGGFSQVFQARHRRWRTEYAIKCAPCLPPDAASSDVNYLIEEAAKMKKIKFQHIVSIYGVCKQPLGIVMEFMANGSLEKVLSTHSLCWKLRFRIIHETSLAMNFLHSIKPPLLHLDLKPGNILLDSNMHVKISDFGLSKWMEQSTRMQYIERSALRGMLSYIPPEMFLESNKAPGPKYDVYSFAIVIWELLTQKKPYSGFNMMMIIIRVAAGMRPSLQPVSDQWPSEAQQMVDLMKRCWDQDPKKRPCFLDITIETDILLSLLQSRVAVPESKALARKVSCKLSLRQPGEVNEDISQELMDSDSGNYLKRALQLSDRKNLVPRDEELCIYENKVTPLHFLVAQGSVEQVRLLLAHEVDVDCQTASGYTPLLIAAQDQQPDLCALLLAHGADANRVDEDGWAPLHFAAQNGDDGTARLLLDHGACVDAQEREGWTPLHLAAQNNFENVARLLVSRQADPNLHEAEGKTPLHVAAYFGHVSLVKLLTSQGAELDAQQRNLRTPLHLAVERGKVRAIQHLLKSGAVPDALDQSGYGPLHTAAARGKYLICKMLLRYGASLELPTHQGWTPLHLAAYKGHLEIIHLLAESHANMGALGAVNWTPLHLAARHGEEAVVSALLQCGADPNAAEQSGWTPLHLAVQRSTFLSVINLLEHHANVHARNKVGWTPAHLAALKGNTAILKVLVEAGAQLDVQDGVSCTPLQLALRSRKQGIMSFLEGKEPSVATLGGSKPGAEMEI

[7] = molecular target: kinases (KINOMEscan panel) (Homo sapiens, UniProt Q8NI60); settings: COQ8A; NEW KINOMEscan
[8] = molecular target: T3, kinases (KINOMEscan panel) (Homo sapiens, UniProt Q9BXA7); settings: kinase TSSK1B; NEW KINOMEscan
T3 sequence (Q9BXA7 1-367): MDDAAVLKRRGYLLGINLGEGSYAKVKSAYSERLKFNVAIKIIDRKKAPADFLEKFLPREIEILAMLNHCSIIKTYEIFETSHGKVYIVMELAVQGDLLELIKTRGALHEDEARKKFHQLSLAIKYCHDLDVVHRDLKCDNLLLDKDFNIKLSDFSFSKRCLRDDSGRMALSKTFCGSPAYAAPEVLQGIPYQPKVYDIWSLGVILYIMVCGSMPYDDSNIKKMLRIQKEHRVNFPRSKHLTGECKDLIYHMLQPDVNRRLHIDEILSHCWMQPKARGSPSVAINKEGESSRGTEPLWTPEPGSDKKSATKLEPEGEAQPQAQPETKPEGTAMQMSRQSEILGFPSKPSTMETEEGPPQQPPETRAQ

[9] = molecular target: kinases (KINOMEscan panel) (Homo sapiens, UniProt Q9H4A3); settings: NEW KINOMEscan
[10] = molecular target: kinases (KINOMEscan panel) (Homo sapiens, UniProt Q9UM73, C1156Y); settings: kinase ALK(C1156Y); NEW KINOMEscan
Chain of kinases (KINOMEscan panel) (Homo sapiens, UniProt Q9UM73, C1156Y) (Q9UM73 19-1620 C1156Y): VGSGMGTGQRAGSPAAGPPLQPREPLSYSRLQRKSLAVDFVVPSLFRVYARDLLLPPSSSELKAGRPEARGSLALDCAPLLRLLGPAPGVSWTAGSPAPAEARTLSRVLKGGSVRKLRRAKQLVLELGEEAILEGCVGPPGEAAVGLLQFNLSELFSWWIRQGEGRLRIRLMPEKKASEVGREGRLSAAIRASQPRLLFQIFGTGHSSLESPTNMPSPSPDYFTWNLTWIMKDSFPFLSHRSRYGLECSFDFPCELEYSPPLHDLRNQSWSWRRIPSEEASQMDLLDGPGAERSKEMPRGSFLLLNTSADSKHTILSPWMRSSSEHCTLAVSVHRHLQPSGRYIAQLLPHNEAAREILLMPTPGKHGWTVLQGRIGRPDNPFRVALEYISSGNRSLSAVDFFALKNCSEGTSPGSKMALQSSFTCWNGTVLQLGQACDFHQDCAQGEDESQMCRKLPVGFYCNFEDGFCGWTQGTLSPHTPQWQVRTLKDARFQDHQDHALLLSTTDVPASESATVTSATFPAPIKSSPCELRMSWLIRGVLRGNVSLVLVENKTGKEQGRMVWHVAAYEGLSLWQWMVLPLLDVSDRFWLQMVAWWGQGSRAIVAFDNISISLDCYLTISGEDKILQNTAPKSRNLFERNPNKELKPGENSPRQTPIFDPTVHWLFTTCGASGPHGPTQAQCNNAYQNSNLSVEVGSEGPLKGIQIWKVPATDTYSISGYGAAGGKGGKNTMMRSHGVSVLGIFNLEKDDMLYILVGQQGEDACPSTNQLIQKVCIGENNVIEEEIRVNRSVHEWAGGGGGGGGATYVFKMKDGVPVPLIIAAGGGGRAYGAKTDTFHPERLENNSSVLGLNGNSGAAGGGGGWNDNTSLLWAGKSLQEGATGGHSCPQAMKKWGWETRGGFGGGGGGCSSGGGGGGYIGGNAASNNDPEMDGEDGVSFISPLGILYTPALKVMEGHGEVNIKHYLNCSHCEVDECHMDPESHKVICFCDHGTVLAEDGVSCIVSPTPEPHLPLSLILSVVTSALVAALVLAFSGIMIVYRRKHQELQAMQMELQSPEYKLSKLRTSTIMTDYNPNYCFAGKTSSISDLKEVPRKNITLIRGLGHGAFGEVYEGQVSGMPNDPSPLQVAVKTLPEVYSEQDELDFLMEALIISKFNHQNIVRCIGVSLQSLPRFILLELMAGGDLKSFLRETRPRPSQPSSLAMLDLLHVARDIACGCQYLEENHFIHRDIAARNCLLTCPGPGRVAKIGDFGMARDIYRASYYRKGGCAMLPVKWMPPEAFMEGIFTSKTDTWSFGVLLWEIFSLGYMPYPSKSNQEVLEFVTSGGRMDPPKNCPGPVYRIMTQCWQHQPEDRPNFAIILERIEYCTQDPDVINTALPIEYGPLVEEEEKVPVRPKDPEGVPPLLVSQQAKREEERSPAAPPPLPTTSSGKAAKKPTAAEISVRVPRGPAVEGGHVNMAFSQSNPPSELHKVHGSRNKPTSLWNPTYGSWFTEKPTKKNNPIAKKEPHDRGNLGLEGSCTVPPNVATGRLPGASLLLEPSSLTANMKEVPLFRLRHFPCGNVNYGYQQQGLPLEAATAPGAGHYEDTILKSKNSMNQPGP

Chain of kinases (KINOMEscan panel) (Homo sapiens, UniProt Q8N5S9) (Q8N5S9 whole entry): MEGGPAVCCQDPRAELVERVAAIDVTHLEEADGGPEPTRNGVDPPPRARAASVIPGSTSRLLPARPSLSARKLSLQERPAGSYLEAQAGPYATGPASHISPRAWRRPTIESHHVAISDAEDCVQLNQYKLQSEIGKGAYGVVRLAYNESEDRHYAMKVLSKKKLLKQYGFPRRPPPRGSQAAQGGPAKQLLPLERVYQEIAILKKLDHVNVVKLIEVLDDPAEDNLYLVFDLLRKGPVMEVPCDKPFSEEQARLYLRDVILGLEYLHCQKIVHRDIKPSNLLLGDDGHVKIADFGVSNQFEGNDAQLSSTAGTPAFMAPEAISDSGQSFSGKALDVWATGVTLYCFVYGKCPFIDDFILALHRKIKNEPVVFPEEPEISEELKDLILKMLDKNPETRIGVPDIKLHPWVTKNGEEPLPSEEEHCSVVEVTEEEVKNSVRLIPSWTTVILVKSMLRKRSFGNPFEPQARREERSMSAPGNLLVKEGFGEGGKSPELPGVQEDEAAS
Chain of kinases (KINOMEscan panel) (Homo sapiens, UniProt Q8NI60) (Q8NI60 163-647): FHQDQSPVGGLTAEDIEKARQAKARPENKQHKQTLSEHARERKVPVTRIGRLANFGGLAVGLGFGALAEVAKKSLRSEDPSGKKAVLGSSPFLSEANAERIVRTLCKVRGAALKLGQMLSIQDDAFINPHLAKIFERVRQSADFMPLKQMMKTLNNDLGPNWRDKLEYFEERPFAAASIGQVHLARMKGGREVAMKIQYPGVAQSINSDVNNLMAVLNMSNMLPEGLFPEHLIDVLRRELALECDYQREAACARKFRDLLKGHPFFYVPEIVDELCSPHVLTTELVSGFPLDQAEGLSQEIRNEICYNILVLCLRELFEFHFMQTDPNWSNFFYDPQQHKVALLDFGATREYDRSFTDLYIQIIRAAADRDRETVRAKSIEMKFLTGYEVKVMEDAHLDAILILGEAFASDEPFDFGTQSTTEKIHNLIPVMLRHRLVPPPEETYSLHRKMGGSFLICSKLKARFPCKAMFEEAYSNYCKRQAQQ
Chain of kinases (KINOMEscan panel) (Homo sapiens, UniProt Q86Z02) (Q86Z02 whole entry): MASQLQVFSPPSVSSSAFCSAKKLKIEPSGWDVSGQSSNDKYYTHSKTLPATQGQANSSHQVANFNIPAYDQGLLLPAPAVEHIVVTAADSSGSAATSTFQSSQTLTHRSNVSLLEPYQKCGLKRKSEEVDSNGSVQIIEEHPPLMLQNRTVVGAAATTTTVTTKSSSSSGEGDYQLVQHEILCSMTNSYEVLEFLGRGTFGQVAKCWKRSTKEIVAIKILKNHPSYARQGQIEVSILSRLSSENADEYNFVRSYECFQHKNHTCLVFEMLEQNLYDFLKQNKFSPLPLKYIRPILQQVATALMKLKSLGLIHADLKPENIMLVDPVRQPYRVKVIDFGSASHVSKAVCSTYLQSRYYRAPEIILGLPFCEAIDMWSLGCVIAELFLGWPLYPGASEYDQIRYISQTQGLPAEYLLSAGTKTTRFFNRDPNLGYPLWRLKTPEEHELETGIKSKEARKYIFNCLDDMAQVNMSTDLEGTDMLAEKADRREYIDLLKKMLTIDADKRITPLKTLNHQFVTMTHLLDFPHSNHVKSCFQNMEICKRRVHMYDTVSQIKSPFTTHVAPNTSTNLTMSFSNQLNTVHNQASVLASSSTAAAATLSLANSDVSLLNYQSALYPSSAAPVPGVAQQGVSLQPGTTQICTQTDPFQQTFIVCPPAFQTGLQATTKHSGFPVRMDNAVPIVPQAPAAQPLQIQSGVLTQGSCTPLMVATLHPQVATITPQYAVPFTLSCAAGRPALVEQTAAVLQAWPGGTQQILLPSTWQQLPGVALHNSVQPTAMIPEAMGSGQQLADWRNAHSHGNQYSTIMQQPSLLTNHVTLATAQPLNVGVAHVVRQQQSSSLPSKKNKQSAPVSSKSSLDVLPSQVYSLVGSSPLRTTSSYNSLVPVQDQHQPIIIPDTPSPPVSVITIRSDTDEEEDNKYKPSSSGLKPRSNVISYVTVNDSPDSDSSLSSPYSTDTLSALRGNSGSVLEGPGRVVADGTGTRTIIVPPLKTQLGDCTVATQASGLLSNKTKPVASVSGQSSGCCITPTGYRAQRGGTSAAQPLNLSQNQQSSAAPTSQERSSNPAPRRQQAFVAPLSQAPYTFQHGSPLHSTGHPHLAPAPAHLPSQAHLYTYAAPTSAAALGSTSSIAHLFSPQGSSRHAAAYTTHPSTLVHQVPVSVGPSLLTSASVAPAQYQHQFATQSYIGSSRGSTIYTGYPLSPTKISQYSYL
Chain of kinases (KINOMEscan panel) (Homo sapiens, UniProt P04049) (P04049 whole entry): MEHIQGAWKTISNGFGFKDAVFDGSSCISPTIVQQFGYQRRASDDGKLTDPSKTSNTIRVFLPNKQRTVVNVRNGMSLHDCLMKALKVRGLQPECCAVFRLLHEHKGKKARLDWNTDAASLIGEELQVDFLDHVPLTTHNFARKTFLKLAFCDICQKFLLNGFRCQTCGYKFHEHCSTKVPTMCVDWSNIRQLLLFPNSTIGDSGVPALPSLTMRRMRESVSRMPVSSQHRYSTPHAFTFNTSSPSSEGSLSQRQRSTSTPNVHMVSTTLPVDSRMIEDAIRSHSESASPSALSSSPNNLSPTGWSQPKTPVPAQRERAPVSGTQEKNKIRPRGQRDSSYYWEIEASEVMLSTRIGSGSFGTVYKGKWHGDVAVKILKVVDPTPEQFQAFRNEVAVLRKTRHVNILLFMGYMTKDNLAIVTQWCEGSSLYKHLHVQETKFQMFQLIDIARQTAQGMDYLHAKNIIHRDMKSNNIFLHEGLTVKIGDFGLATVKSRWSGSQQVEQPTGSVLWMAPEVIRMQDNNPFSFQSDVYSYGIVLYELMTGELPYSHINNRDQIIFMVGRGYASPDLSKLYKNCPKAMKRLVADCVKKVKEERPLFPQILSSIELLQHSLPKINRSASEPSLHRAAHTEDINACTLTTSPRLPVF
Chain of kinases (KINOMEscan panel) (Homo sapiens, UniProt P19525) (P19525 whole entry): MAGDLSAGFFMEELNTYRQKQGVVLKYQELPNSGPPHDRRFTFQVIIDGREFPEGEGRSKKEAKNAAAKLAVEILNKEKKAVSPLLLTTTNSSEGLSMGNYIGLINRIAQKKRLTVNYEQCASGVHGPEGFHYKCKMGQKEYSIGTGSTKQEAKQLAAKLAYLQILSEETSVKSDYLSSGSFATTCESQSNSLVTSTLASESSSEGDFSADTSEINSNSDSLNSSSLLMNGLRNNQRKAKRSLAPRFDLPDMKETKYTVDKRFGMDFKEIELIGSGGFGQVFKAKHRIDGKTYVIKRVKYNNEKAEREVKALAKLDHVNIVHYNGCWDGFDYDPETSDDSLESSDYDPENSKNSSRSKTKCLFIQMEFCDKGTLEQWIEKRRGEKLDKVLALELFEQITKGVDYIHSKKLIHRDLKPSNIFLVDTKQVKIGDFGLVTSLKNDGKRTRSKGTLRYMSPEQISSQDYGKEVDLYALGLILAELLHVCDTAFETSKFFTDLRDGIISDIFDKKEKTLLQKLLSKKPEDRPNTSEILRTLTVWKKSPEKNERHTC

Structure (SMILES) | KINOMEscan RAF1 [1] | KINOMEscan ElF2AK2 [2] | KINOMEscan HIPK1 [3] | KINOMEscan DCLK2 [4] | KINOMEscan CAMKK1 [5] | KINOMEscan ANKK1 [6] | KINOMEscan COQ8A [7] | KINOMEscan TSSK1B [8] | KINOMEscan WNK1 [9] | KINOMEscan ALK(C1156Y) [10]
Cc1cccc(-c2nc(Nc3ccc4nn(C)cc4c3)c3ccccc3n2)n1 [NK167] | 4 | 19 | 27 | 11 | 0 | 0 | 5 | 15 | 0 | 11
Cc1cccc(-c2nc(N(C)c3ccc4ncsc4c3)c3ccccc3n2)n1 [NK-161] | 0 | 7 | 5 | 25 | 9 | 0 | 1 | 11 | 9 | 2
